Experimental data from ChEMBL document CHEMBL1201862, “PubChem BioAssay data set” (2004).
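Five concentrations, 48 hours, 96-well plates. Here, GI50 denotes the concentration required for 50% inhibition of growth.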 Active and inactive are the calls of the source. Cut-off read from the data, not from the text of the source: active = GI50 up to about 1.1 µM and inactive = higher.

Experiments:
Assay in all cases: inhibition of tumour cell growth, NCI panel, 48 h
Malme-3M = test system: Malme-3M
MCF7 = test system: MCF7
SK-MEL-2 = test system: SK-MEL-2
A498 = test system: A498
Hs-578T = test system: Hs-578T
PC-3 = test system: PC-3
CCRF-CEM = test system: CCRF-CEM
M14 = test system: M14
BT-549 = test system: BT-549
NCI/ADR-RES = test system: NCI/ADR-RES
SK-OV-3 = test system: SK-OV-3
786-0 = test system: 786-0
MDA-MB-435 = test system: MDA-MB-435
U-251 = test system: U-251
RXF 393 = test system: RXF 393
SW-620 = test system: SW-620
T47D = test system: T47D
DU-145 = test system: DU-145
SK-MEL-28 = test system: SK-MEL-28
HOP-92 = test system: HOP-92

SMILES	GI50 (Malme-3M)	GI50 (MCF7)	GI50 (SK-MEL-2)	GI50 (A498)	GI50 (Hs-578T)	GI50 (PC-3)	GI50 (CCRF-CEM)	GI50 (M14)	GI50 (BT-549)	GI50 (NCI/ADR-RES)	GI50 (SK-OV-3)	GI50 (786-0)	GI50 (MDA-MB-435)	GI50 (U-251)	GI50 (RXF 393)	GI50 (SW-620)	GI50 (T47D)	GI50 (DU-145)	GI50 (SK-MEL-28)	GI50 (HOP-92)
CC(=O)OC12CC(C(F)(F)F)(C(F)(F)F)OC1(OC(C)=O)CC(C(F)(F)F)(C(F)(F)F)O2 (stereo not drawn)	4.86 µM (inactive)	0.426 µM (active)	5.75 µM (inactive)	2.14 µM (inactive)	13.3 µM (inactive)	0.805 µM (active)	2.04 µM (inactive)	3.72 µM (inactive)	5.42 µM (inactive)	10.9 µM (inactive)	4.94 µM (inactive)	2.9 µM (inactive)	2.13 µM (inactive)	1.63 µM (inactive)	11.5 µM (inactive)	5.43 µM (inactive)	1.34 µM (inactive)	4.06 µM (inactive)	4.54 µM (inactive)	
CC1CCCC2=C1C(c1ccc(Cl)cc1)n1c(s/c(=C\c3ccc(Cl)cc3)c1=O)=N2 (stereo not drawn)		> 100 µM (inactive)	> 100 µM (inactive)	> 100 µM (inactive)	> 100 µM (inactive)	> 100 µM (inactive)	> 100 µM (inactive)	> 100 µM (inactive)	22.1 µM (inactive)		> 100 µM (inactive)	> 100 µM (inactive)	> 100 µM (inactive)	> 100 µM (inactive)	> 100 µM (inactive)	> 100 µM (inactive)	> 100 µM (inactive)	> 100 µM (inactive)	> 100 µM (inactive)	> 100 µM (inactive)
Cc1cc(C)cc(Nc2nnc3n2S(=O)(=O)c2cc(C)c(Cl)cc2S3)c1	1.87 µM (inactive)	3.77 µM (inactive)	2.7 µM (inactive)	5.09 µM (inactive)	2.94 µM (inactive)	2.77 µM (inactive)	0.313 µM (active)	8.09 µM (inactive)	4.22 µM (inactive)	2.99 µM (inactive)	14.3 µM (inactive)	4.94 µM (inactive)	6.03 µM (inactive)	3.24 µM (inactive)	3.03 µM (inactive)	3.45 µM (inactive)	5.69 µM (inactive)	10.3 µM (inactive)	17.6 µM (inactive)	
COC(=O)C1=C(O)C(C(=O)OC)[C@]2(O)[C@H](C(=O)OC)[C@H]1C[C@@H](c1ccc(OC)cc1)[C@H]2C(=O)OC (stereo partly drawn)	17.7 µM (inactive)	20.2 µM (inactive)	19.8 µM (inactive)	7.74 µM (inactive)	19.9 µM (inactive)			23.8 µM (inactive)	30.8 µM (inactive)	23.8 µM (inactive)	29 µM (inactive)	20.2 µM (inactive)	5.97 µM (inactive)	24.5 µM (inactive)	16 µM (inactive)	17.7 µM (inactive)	22.3 µM (inactive)		30.4 µM (inactive)	59.7 µM (inactive)
O=C1c2ccccc2C2(c3ccc(F)cc3)NCCN12 (stereo not drawn)	> 100 µM (inactive)	> 100 µM (inactive)	> 100 µM (inactive)		> 100 µM (inactive)	> 100 µM (inactive)	> 100 µM (inactive)	> 100 µM (inactive)	> 100 µM (inactive)	> 100 µM (inactive)	> 100 µM (inactive)	> 100 µM (inactive)	> 100 µM (inactive)	> 100 µM (inactive)	> 100 µM (inactive)	> 100 µM (inactive)	> 100 µM (inactive)	> 100 µM (inactive)	> 100 µM (inactive)	
Cn1nc(-c2ccccc2)c2c(-c3ccccc3)c3cc(Cl)ccc3nc21	> 100 µM (inactive)	82 µM (inactive)	> 100 µM (inactive)	> 100 µM (inactive)	> 76.4 µM (inactive)	> 100 µM (inactive)	0.0311 µM (active)	> 100 µM (inactive)	> 100 µM (inactive)		> 100 µM (inactive)	> 100 µM (inactive)	> 100 µM (inactive)	> 100 µM (inactive)	> 100 µM (inactive)	> 100 µM (inactive)	> 100 µM (inactive)	> 100 µM (inactive)	> 100 µM (inactive)	
CC(=O)OC1C2CCC3C(C)(O)C4CC(O)C(C)(C)C4(O)C(O)CC13CC2(C)O (stereo not drawn)		> 100 µM (inactive)	> 100 µM (inactive)	> 100 µM (inactive)	> 100 µM (inactive)	> 100 µM (inactive)	> 100 µM (inactive)	> 100 µM (inactive)	> 100 µM (inactive)	> 100 µM (inactive)	> 100 µM (inactive)	> 100 µM (inactive)					> 100 µM (inactive)	> 100 µM (inactive)		> 100 µM (inactive)
